Results published in paper PMC11868595, “Safety, pharmacokinetics and efficacy of HA121-28 in patients with advanced solid tumors and RET fusion-positive non-small-cell lung cancer: a multicenter, open-label, single-arm phase 1/2 trial” (Signal Transduction and Targeted Therapy, 2025).

Legend:
[1] = target: ALK1 (Homo sapiens, UniProt P37023); assay: Tyrosine kinase inhibition; type: biochemical
[2] = Single-dose toxicity; type: in vivo, SD rats; details: single oral gavage
Protocol: mg/kg. The maximum tolerated dose (MTD) was 500 mg/kg. Gastrointestinal, hepatic, and immune system toxicity may have contributed to the rat deaths.
2.2. Dose expansion phase
[…] To investigate the efficacy of HA121- 28 tablets in patients with advanced solid tumors.
This study is a single- arm, open- label, dose-escalation, and dose-expansion phase 1 clinical studywith single and multiple dosing.

[3] = system: SGC-7901 cells; assay: Tumor cell proliferation in vitro; type: cell-based, human; details: SGC7901
[4] = target: FLT-1 (Homo sapiens, UniProt P17948); assay: Tyrosine kinase inhibition; type: biochemical; details: read-out: IC50, FLT1
Chain of FLT-1 (P17948 27-1338): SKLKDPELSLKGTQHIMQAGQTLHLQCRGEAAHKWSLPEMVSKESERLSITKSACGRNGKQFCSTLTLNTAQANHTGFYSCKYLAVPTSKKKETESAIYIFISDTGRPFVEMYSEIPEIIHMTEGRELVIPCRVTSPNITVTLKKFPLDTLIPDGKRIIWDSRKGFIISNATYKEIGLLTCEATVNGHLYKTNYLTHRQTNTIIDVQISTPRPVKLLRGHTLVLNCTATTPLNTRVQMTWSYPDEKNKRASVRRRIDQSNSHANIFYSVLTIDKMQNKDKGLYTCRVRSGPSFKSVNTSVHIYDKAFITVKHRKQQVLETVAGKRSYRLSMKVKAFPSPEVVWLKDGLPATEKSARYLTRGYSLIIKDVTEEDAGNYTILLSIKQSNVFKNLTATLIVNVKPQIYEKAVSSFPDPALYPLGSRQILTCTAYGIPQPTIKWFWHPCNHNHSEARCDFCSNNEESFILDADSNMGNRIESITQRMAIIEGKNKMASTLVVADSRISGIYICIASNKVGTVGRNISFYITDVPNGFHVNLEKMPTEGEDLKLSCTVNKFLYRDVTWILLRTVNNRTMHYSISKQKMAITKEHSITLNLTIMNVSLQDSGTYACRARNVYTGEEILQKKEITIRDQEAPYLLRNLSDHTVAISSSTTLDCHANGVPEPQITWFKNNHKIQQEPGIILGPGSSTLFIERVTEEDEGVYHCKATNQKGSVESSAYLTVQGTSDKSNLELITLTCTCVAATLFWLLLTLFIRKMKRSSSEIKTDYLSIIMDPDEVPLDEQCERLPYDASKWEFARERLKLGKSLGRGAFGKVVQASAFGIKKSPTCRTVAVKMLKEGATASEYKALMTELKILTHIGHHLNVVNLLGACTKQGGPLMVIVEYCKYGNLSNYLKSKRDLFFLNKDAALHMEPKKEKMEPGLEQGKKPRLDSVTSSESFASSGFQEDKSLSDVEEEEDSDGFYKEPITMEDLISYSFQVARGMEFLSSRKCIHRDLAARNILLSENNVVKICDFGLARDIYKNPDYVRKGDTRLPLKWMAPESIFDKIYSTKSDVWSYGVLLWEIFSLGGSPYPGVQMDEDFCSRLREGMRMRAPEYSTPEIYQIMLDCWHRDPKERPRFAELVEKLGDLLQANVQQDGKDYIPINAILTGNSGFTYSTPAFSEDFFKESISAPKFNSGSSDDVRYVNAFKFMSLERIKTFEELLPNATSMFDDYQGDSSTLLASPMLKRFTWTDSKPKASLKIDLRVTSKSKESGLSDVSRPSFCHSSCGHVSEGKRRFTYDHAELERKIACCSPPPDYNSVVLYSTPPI

[5] = system: patients of phase 1 and phase 2 trials; assay: Phase 1/2 pooled TRAEs with or without previous immunotherapy; type: in vivo, human
Protocol: Treatment-emergent adverse events (TEAEs) were documented during the entire study period. The predefined adverse event of special interest (AESI) was ≥ grade 3 prolonged QT interval. Tumor imaging was performed using contrast-enhanced computed tomography or magnetic resonance imaging at screening, Day 28 of the first cycle, then approximately every eight weeks till the end of the study for phase 1; in phase 2, imaging was scheduled at screening, and every eight weeks during the first 40 weeks, followed by every 12 weeks for the rest of the study period. RECIST 1.1 was used by the independent review committee or investigators for assessment of tumor response. After the original assessment, a repeated assessment was required around four weeks later to confirm a complete or partial response.
The full analysis set consisted of all patients who had administered at least one dose of HA121-28 and was used to calculate the baseline characteristics, OS, and PFS results. The safety set included all patients who had administered at least one dose of the HA121-28 and had at least one safety-related observation. This population was used for analysis of TEAEs. The efficacy evaluable set consisted of patients who had administered at least one dose of HA121-28 and completed at least one efficacy assessment following study treatment. This population was used to calculate the ORR, DOR, and DCR. In addition, the ORRs for subgroup analyses, including age ( < 60, ≥60), ECOG PS (0 or 1), gender (male or female), prior treatment with TKIs (yes or no), brain or liver metastasis (yes or no), were also calculated. The plasma drug concentration-time profile was characterized using PK concentration set that included patients who had administered at least one dose of HA121-28 and had at least one measurable plasma concentration of HA121-28. The PK parameter set was used to calculate PK parameters, which consisted of patients who had administered at least one dose of HA121-28 with at least one valid PK parameter. ORR and DCR were described using the Clopper-Pearson method with two-sided 95% confidence intervals (CIs). PFS and DOR were assessed using the Kaplan-Meier method, including an estimate of the median, along with corresponding 95% CIs. Statistical analyses of clinical outcomes were conducted by SAS (version 9.4 or later) and R software 4.1.0 for genomic DNA from pre-treatment tumor tissue (http://cran.r-project.org).

[6] = target: HER-2 (Homo sapiens, UniProt P04626); assay: Tyrosine kinase inhibition; type: biochemical; details: read-out: IC50, HER2
Chain of HER-2 (P04626 23-1255): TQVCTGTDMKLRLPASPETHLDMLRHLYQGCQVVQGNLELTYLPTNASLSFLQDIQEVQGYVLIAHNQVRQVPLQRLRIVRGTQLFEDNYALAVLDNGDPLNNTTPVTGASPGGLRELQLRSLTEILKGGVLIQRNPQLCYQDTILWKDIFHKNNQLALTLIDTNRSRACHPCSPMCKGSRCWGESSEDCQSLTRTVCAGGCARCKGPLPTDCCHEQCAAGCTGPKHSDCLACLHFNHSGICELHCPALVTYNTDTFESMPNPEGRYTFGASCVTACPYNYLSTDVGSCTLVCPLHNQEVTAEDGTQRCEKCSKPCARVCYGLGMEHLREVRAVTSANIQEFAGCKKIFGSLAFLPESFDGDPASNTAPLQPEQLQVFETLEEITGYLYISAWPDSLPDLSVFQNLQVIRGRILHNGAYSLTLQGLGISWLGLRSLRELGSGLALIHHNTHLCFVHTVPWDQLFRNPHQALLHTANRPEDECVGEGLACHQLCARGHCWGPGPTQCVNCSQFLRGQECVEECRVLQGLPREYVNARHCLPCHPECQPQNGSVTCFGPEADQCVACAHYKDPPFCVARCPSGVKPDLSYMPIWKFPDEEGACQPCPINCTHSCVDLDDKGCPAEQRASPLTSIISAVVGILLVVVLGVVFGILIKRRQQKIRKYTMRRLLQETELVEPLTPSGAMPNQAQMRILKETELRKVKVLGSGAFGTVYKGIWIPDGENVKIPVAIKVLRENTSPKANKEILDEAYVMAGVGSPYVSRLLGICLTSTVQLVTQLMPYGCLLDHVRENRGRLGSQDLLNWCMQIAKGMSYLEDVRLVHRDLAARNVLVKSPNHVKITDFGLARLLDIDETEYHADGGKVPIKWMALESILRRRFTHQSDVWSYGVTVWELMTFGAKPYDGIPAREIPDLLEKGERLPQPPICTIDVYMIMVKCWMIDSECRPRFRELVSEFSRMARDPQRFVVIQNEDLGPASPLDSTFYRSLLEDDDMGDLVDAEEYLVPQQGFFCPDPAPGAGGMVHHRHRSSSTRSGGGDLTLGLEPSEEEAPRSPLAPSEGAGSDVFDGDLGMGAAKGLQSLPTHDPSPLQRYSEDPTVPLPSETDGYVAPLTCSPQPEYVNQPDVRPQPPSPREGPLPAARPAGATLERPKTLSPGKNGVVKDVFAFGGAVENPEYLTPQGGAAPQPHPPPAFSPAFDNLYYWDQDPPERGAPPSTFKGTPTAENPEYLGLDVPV

[7] = Plasma protein binding; type: in vitro ADME; details: rats
[8] = Excretion after gastric lavage; type: in vivo, rats
[9] = With prior immunotherapy treatment (N=43)
[10] = Without prior immunotherapy treatment (N=165)

Chain of ALK1 (P37023 142-503 limits assumed): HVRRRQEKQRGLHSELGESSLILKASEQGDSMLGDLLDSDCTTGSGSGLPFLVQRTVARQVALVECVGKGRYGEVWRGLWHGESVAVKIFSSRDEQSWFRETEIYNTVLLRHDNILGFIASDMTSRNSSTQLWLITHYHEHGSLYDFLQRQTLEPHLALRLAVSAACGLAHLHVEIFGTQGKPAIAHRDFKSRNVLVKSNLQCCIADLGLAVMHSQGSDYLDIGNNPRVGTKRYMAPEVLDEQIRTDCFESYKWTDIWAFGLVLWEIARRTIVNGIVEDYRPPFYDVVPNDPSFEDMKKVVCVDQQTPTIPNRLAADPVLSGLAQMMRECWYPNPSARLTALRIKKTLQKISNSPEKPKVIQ

COc1cc2c(Nc3ccc(Br)cc3F)ncnc2cc1OCCCCN(C)C.Cl.Cl [HA121-28, N-(4-bromo-2-fluorophenyl)-7-(4-(dimethylamino)butoxy)-6-methoxy quinazolin-4-amine dihydrochloride]
IC50 [1]: 2590 nM | maximum tolerated dose (MTD) [2]: 500 mg/kg | IC50 [3]: 4360 ± 338 nM | IC50 [4]: 20.9 nM | incidence of ≥ grade-3 TRAE ([5]; 43 patients with previous immunotherapy): 58.1% | incidence of ≥ grade-3 TRAE ([5]; 165 patients without previous immunotherapy): 41.2% | TRAE, All: ALT increased [5, 9]: 22 (51.2) count (percentage) | TRAE, All: AST increased [5, 9]: 19 (44.2) count (percentage) | TRAE, All: Anemia [5, 9]: 5 (11.6) count (percentage) | TRAE, All: Any [5, 9]: 42 (97.7) count (percentage) | TRAE, All: Blood creatinine increased [5, 9]: 11 (25.6) count (percentage) | TRAE, All: Decreased appetite [5, 9]: 7 (16.3) count (percentage) | TRAE, All: Decreased lymphocyte counts [5, 9]: 5 (11.6) count (percentage) | TRAE, All: Diarrhea [5, 9]: 32 (74.4) count (percentage) | TRAE, All: Fatigue [5, 9]: 6 (14.0) count (percentage) | TRAE, All: Hypertension [5, 9]: 5 (11.6) count (percentage) | TRAE, All: Hypoalbuminemia [5, 9]: 5 (11.6) count (percentage) | TRAE, All: Hypokalemia [5, 9]: 9 (20.9) count (percentage) | TRAE, All: Nausea [5, 9]: 6 (14.0) count (percentage) | TRAE, All: Neutrophil counts decreased [5, 9]: 7 (16.3) count (percentage) | TRAE, All: Platelet counts decreased [5, 9]: 7 (16.3) count (percentage) | TRAE, All: Prolonged QT interval [5, 9]: 23 (53.5) count (percentage) | TRAE, All: Proteinuria [5, 9]: 17 (39.5) count (percentage) | TRAE, All: Rash [5, 9]: 31 (72.1) count (percentage) | TRAE, All: Vomiting [5, 9]: 7 (16.3) count (percentage) | TRAE, All: Weight loss [5, 9]: 6 (14.0) count (percentage) | TRAE, All: White blood cell counts decreased [5, 9]: 7 (16.3) count (percentage) | TRAE, ≥ Grade 3: ALT increased [5, 9]: 1 (2.3) count (percentage) | TRAE, ≥ Grade 3: AST increased [5, 9]: 1 (2.3) count (percentage) | TRAE, ≥ Grade 3: Anemia [5, 9]: 0 count (percentage) | TRAE, ≥ Grade 3: Any [5, 9]: 25 (58.1) count (percentage) | TRAE, ≥ Grade 3: Blood creatinine increased [5, 9]: 0 count (percentage) | TRAE, ≥ Grade 3: Decreased appetite [5, 9]: 0 count (percentage) | TRAE, ≥ Grade 3: Decreased lymphocyte counts [5, 9]: 0 count (percentage) | TRAE, ≥ Grade 3: Diarrhea [5, 9]: 4 (9.3) count (percentage) | TRAE, ≥ Grade 3: Fatigue [5, 9]: 0 count (percentage) | TRAE, ≥ Grade 3: Hypertension [5, 9]: 0 count (percentage) | TRAE, ≥ Grade 3: Hypoalbuminemia [5, 9]: 0 count (percentage) | TRAE, ≥ Grade 3: Hypokalemia [5, 9]: 3 (7.0) count (percentage) | TRAE, ≥ Grade 3: Nausea [5, 9]: 0 count (percentage) | TRAE, ≥ Grade 3: Neutrophil counts decreased [5, 9]: 3 (7.0) count (percentage) | TRAE, ≥ Grade 3: Platelet counts decreased [5, 9]: 0 count (percentage) | TRAE, ≥ Grade 3: Prolonged QT interval [5, 9]: 12 (27.9) count (percentage) | TRAE, ≥ Grade 3: Proteinuria [5, 9]: 0 count (percentage) | TRAE, ≥ Grade 3: Rash [5, 9]: 3 (7.0) count (percentage) | TRAE, ≥ Grade 3: Vomiting [5, 9]: 0 count (percentage) | TRAE, ≥ Grade 3: Weight loss [5, 9]: 0 count (percentage) | TRAE, ≥ Grade 3: White blood cell counts decreased [5, 9]: 1 (2.3) count (percentage) | TRAE, All: ALT increased [5, 10]: 52 (31.5) count (percentage) | TRAE, All: AST increased [5, 10]: 52 (31.5) count (percentage) | TRAE, All: Anemia [5, 10]: 14 (8.5) count (percentage) | TRAE, All: Any [5, 10]: 161 (97.6) count (percentage) | TRAE, All: Blood creatinine increased [5, 10]: 33 (20.0) count (percentage) | TRAE, All: Decreased appetite [5, 10]: 25 (15.2) count (percentage) | TRAE, All: Decreased lymphocyte counts [5, 10]: 5 (3.0) count (percentage) | TRAE, All: Diarrhea [5, 10]: 125 (75.8) count (percentage) | TRAE, All: Fatigue [5, 10]: 22 (13.3) count (percentage) | TRAE, All: Hypertension [5, 10]: 22 (13.3) count (percentage) | TRAE, All: Hypoalbuminemia [5, 10]: 20 (12.1) count (percentage) | TRAE, All: Hypokalemia [5, 10]: 26 (15.8) count (percentage) | TRAE, All: Nausea [5, 10]: 37 (22.4) count (percentage) | TRAE, All: Neutrophil counts decreased [5, 10]: 13 (7.9) count (percentage) | TRAE, All: Platelet counts decreased [5, 10]: 12 (7.3) count (percentage) | TRAE, All: Prolonged QT interval [5, 10]: 76 (46.1) count (percentage) | TRAE, All: Proteinuria [5, 10]: 48 (29.1) count (percentage) | TRAE, All: Rash [5, 10]: 88 (53.3) count (percentage) | TRAE, All: Vomiting [5, 10]: 30 (18.2) count (percentage) | TRAE, All: Weight loss [5, 10]: 6 (3.6) count (percentage) | TRAE, All: White blood cell counts decreased [5, 10]: 14 (8.5) count (percentage) | TRAE, ≥ Grade 3: ALT increased [5, 10]: 3 (1.8) count (percentage) | TRAE, ≥ Grade 3: AST increased [5, 10]: 3 (1.8) count (percentage) | TRAE, ≥ Grade 3: Anemia [5, 10]: 1 (0.6) count (percentage) | TRAE, ≥ Grade 3: Any [5, 10]: 68 (41.2) count (percentage) | TRAE, ≥ Grade 3: Blood creatinine increased [5, 10]: 2 (1.2) count (percentage) | TRAE, ≥ Grade 3: Decreased appetite [5, 10]: 4 (2.4) count (percentage) | TRAE, ≥ Grade 3: Decreased lymphocyte counts [5, 10]: 0 count (percentage) | TRAE, ≥ Grade 3: Diarrhea [5, 10]: 12 (7.3) count (percentage) | TRAE, ≥ Grade 3: Fatigue [5, 10]: 0 count (percentage) | TRAE, ≥ Grade 3: Hypertension [5, 10]: 14 (8.5) count (percentage) | TRAE, ≥ Grade 3: Hypoalbuminemia [5, 10]: 1 (0.6) count (percentage) | TRAE, ≥ Grade 3: Hypokalemia [5, 10]: 4 (2.4) count (percentage) | TRAE, ≥ Grade 3: Nausea [5, 10]: 2 (1.2) count (percentage) | TRAE, ≥ Grade 3: Neutrophil counts decreased [5, 10]: 1 (0.6) count (percentage) | TRAE, ≥ Grade 3: Platelet counts decreased [5, 10]: 1 (0.6) count (percentage) | TRAE, ≥ Grade 3: Prolonged QT interval [5, 10]: 26 (15.8) count (percentage) | TRAE, ≥ Grade 3: Proteinuria [5, 10]: 0 count (percentage) | TRAE, ≥ Grade 3: Rash [5, 10]: 7 (4.2) count (percentage) | TRAE, ≥ Grade 3: Vomiting [5, 10]: 2 (1.2) count (percentage) | TRAE, ≥ Grade 3: Weight loss [5, 10]: 0 count (percentage) | TRAE, ≥ Grade 3: White blood cell counts decreased [5, 10]: 2 (1.2) count (percentage) | ≥ grade-3 TRAE decreased neutrophil counts ([5]; with previous immunotherapy): 7.0% | ≥ grade-3 TRAE hypertension ([5]; with previous immunotherapy): 0% | ≥ grade-3 TRAE prolonged QT interval ([5]; with previous immunotherapy): 27.9% | ≥ grade-3 TRAE decreased neutrophil counts ([5]; without previous immunotherapy): 0.6% | ≥ grade-3 TRAE hypertension ([5]; without previous immunotherapy): 8.5% | ≥ grade-3 TRAE prolonged QT interval ([5]; without previous immunotherapy): 15.8% | IC50 [6]: 42 nM | plasma protein binding rate [7]: 92.4±1.28% | excretion in original form ([8]; bile): 3.91% | excretion in original form ([8]; feces): 27.5% | excretion in original form ([8]; urine): 2.18% | total excretion rate ([8]; urine and feces): 29.7%
